Values quoted from earlier work, collected in article PMC3433420 (PLoS ONE, 2012).
Like-named read-outs stand apart in the source and are kept apart here.

Molecular target: SH2 and PTB domains
Conditions: cited from earlier work
From the text: Supplement pone.0044471.s022.xlsx, sheet "Most recent PM interactions" | column: Kd || Supplement pone.0044471.s022.xlsx, sheet "All original PM interactions" | column: Kd

Row | Substance | Kd (protein SYK-N, ref Kaushansky et al. Chem and Biol 2008) [nM] | Kd (Protein HSH2D, most recent PM interactions, ref Kaushansky et al. Mol Biosys 2008) [nM] | Kd (Protein TNS4, most recent PM interactions, ref Kaushansky et al. Mol Biosys 2008) [nM]
1 | AEDEpYVNEPLYLd [ErbB4 pY1202, N-terminally rhodamine-labeled 13-mer phosphopeptide] | 6 |  | 
2 | ALESILHRIpYTHQSDVWd [ErbB1 891] |  | 1130 | 300
